According to US20230226074A1, “METHODS OF USE FOR PYRIMIDINES AS FERROPORTIN INHIBITORS” (Global Blood Therapeutics, Inc., priority 2020, published 2023):

These compounds were tested against T1, human ferroportin (Homo sapiens, UniProt Q9NP59) (assay: In-vitro ferroportin internalization assay (luciferase reporter)). Settings: average pEC50; stably-transfected CHO cell line expressing human ferroportin tagged to a luciferase reporter; 6 h incubation with test compound.
T1 construct: luciferase reporter (probably NanoLuc, inferred from the Nano-Glo Luciferase Assay System read-out); expressed in transfected cells; host or cells: CHO cells, stably transfected, expression induced with doxycycline
T1 sequence (Q9NP59 1-571): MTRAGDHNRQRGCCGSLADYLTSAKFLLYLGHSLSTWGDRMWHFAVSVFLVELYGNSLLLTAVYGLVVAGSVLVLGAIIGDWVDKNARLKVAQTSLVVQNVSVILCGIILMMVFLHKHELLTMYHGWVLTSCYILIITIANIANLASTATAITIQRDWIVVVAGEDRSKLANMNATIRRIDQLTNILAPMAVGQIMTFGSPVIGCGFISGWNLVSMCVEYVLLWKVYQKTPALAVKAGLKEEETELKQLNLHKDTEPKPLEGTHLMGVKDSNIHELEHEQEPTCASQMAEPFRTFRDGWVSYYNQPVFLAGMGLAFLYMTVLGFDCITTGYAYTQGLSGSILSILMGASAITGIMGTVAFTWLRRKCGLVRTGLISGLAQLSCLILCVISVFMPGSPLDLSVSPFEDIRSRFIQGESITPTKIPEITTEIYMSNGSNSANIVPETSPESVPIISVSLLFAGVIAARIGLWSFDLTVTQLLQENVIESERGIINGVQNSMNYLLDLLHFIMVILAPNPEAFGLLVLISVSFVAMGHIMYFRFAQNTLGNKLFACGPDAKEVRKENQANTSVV
Format: cell-based
Description: The protocol for this assay is generally as described in WO2018/128828, incorporated herein by reference in its entirety. Functional internalization of ferroportin protein was measured using a stably-transfected CHO cell line expressing the human ferroportin tagged to a luciferase reporter. Cells were plated for 24 h in the presence of ferric ammonium citrate (FAC). Ferroportin protein expression was induced with doxycycline for 24 h. The next day, the compounds were added. Test compounds were dissolved in DMSO. Cells were incubated with the test compounds for 6 h, and subsequently luciferase activity was measured using the Nano-Glo Luciferase Assay System and Glomax (Promega, Madison, Wis.). The average pEC50 was determined for the test compounds.

pEC50	Structure (SMILES)
5.7	CCN(CC)CCCNc1nc(-c2ccccn2)nc2scc(-c3ccccc3)c12 [Compound 202, N-[3-(diethylamino)propyl]-5-phenyl-2-(pyridin-2-yl)thieno[2,3-d]pyrimidin-4-amine]
5.7	c1ccc(-c2csc3nc(-c4ccccn4)nc(NC4CC4)c23)cc1 [Compound 203, N-cyclopropyl-5-phenyl-2-(pyridin-2-yl)thieno[2,3-d]pyrimidin-4-amine]
5.6	c1ccc(-c2csc3nc(-c4ccccn4)nc(N4CCC4)c23)cc1 [Compound 204, 2-[4-(azetidin-1-yl)-5-phenylthieno[2,3-d]pyrimidin-2-yl]pyridine]
5.9	c1ccc(-c2csc3nc(-c4ccccn4)nc(N4CCCC4)c23)cc1 [Compound 205, 2-[5-phenyl-4-(pyrrolidin-1-yl)thieno[2,3-d]pyrimidin-2-yl]pyridine]
5.7	c1ccc(-c2csc3nc(-c4ccccn4)nc(N4CCN(c5ccccc5)CC4)c23)cc1 [Compound 206, 1-phenyl-4-[5-phenyl-2-(pyridin-2-yl)thieno[2,3-d]pyrimidin-4-yl]piperazine]
6	c1ccc(-c2csc3nc(-c4ccccn4)nc(N4CCN(c5ccccn5)CC4)c23)cc1 [Compound 207, 1-[5-phenyl-2-(pyridin-2-yl)thieno[2,3-d]pyrimidin-4-yl]-4-(pyridin-2-yl)piperazine]
5.9	c1ccc(-c2csc3nc(-c4ccccn4)nc(N4CCOCC4)c23)cc1 [Compound 208, 4-[5-phenyl-2-(pyridin-2-yl)thieno[2,3-d]pyrimidin-4-yl]morpholine]
6	COCC(C)Nc1nc(-c2ccccn2)nc2sc(C)c(-c3ccccc3)c12 (stereo not drawn) [Compound 209, N-(1-methoxypropan-2-yl)-6-methyl-5-phenyl-2-(pyridin-2-yl)thieno[2,3-d]pyrimidin-4-amine]
6.4	COCCN(CCOC)c1nc(-c2ccccn2)nc2sc(-c3ccccc3)cc12 [Compound 210, N,N-bis(2-methoxyethyl)-6-phenyl-2-(pyridin-2-yl)thieno[2,3-d]pyrimidin-4-amine]
6.7	COCCN(CCOC)c1nc(-c2ccccn2)nc2scc(-c3ccccc3)c12 [Compound 211, N,N-bis(2-methoxyethyl)-5-phenyl-2-(pyridin-2-yl)thieno[2,3-d]pyrimidin-4-amine]
5.9	COCCNc1nc(-c2ccccn2)nc2scc(-c3ccccc3)c12 [Compound 212, N-(2-methoxyethyl)-5-phenyl-2-(pyridin-2-yl)thieno[2,3-d]pyrimidin-4-amine]
5.7	OCCOCCNc1nc(-c2ccccn2)nc2scc(-c3ccccc3)c12 [Compound 213, 2-(2-{[5-phenyl-2-(pyridin-2-yl)thieno[2,3-d]pyrimidin-4-yl]amino}ethoxy)ethan-1-ol]
5.8	CC(=O)N1CCN(c2nc(-c3ccccn3)nc3scc(-c4ccccc4)c23)CC1 [Compound 214, 1-{4-[5-phenyl-2-(pyridin-2-yl)thieno[2,3-d]pyrimidin-4-yl]piperazin-1-yl}ethan-1-one]
6.8	CC(Nc1nc(-c2ccccn2)nc2scc(-c3ccccc3)c12)C(=O)NC(C)(C)C (stereo not drawn) [Compound 215, N-tert-butyl-2-{[5-phenyl-2-(pyridin-2-yl)thieno[2,3-d]pyrimidin-4-yl]amino}propanamide]
5.7	CNC(=O)CCN(C)c1nc(-c2ccccn2)nc2scc(-c3ccccc3)c12 [Compound 216, N-methyl-3-{methyl[5-phenyl-2-(pyridin-2-yl)thieno[2,3-d]pyrimidin-4-yl]amino}propanamide]
5.3	CNC(=O)CNc1nc(-c2ccccn2)nc2scc(-c3ccccc3)c12 [Compound 217, N-methyl-2-{[5-phenyl-2-(pyridin-2-yl)thieno[2,3-d]pyrimidin-4-yl]amino}acetamide]
5.5	O=C(CNc1nc(-c2ccccn2)nc2scc(-c3ccccc3)c12)NC1CC1 [Compound 218, N-cyclopropyl-2-{[5-phenyl-2-(pyridin-2-yl)thieno[2,3-d]pyrimidin-4-yl]amino}acetamide]
6	CCCNC(=O)CNc1nc(-c2ccccn2)nc2scc(-c3ccccc3)c12 [Compound 219, 2-{[5-phenyl-2-(pyridin-2-yl)thieno[2,3-d]pyrimidin-4-yl]amino}-N-propylacetamide]

pEC50	Structure (SMILES)
6	NC(=O)NCCCCNc1nc(-c2ccccn2)nc2scc(-c3ccccc3)c12 [Compound 220, (4-{[5-phenyl-2-(pyridin-2-yl)thieno[2,3-d]pyrimidin-4-yl]amino}butyl)urea]
6	O=C1CCN(c2nc(-c3ccccn3)nc3scc(-c4ccccc4)c23)CC1 [Compound 221, 1-[5-phenyl-2-(pyridin-2-yl)thieno[2,3-d]pyrimidin-4-yl]piperidin-4-one]
6	OC1CCN(c2nc(-c3ccccn3)nc3scc(-c4ccccc4)c23)CC1 [Compound 222, 1-[5-phenyl-2-(pyridin-2-yl)thieno[2,3-d]pyrimidin-4-yl]piperidin-4-ol]
5.6	CN(CCO)c1nc(-c2ccccn2)nc2sc(-c3ccccc3)cc12 [Compound 223, 2-{methyl[6-phenyl-2-(pyridin-2-yl)thieno[2,3-d]pyrimidin-4-yl]amino}ethan-1-ol]
5.3	OCCN1CCN(c2nc(-c3ccccn3)nc3scc(-c4ccccc4)c23)CC1 [Compound 224, 2-{4-[5-phenyl-2-(pyridin-2-yl)thieno[2,3-d]pyrimidin-4-yl]piperazin-1-yl}ethan-1-ol]
5.3	OCCNc1nc(-c2ccccn2)nc2scc(-c3ccccc3)c12 [Compound 225, 2-{[5-phenyl-2-(pyridin-2-yl)thieno[2,3-d]pyrimidin-4-yl]amino}ethan-1-ol]
5.8	CS(=O)(=O)CCNc1nc(-c2ccccn2)nc2scc(-c3ccccc3)c12 [Compound 226, N-(2-methanesulfonylethyl)-5-phenyl-2-(pyridin-2-yl)thieno[2,3-d]pyrimidin-4-amine]
4.8	O=C1C(Nc2cc(C(F)(F)F)nc(-c3ccccn3)n2)CN1c1ccc(F)cc1 (stereo not drawn) [Compound 227, 1-(4-fluorophenyl)-3-{[2-(pyridin-2-yl)-6-(trifluoromethyl)pyrimidin-4-yl]amino}azetidin-2-one]
5.7	O=C1C(Nc2cc(C(F)(F)F)nc(-c3ccccn3)n2)CCN1c1ccccc1 (stereo not drawn) [Compound 228, 1-phenyl-3-{[2-(pyridin-2-yl)-6-(trifluoromethyl)pyrimidin-4-yl]amino}pyrrolidin-2-one]
<5.0	Cc1cc(NCCCn2ccnc2)nc(-c2ccccn2)n1 [Compound 229, N-[3-(1H-imidazol-1-yl)propyl]-6-methyl-2-(pyridin-2-yl)pyrimidin-4-amine]
5.3	CCc1cc(NCCN2CCN(CC)CC2)nc(-c2ccccn2)n1 [Compound 230, 6-ethyl-N-[2-(4-ethylpiperazin-1-yl)ethyl]-2-(pyridin-2-yl)pyrimidin-4-amine]
5.4	Cc1cc(NCCc2cccnc2)nc(-c2ccccn2)n1 [Compound 231, 6-methyl-2-(pyridin-2-yl)-N-[2-(pyridin-3-yl)ethyl]pyrimidin-4-amine]
5.5	Cc1cc(NCCC(=O)N2CCCCCC2)nc(-c2ccccn2)n1 [Compound 232, 1-(azepan-1-yl)-3-{[6-methyl-2-(pyridin-2-yl)pyrimidin-4-yl]amino}propan-1-one]
5.2	Cc1cc(NCCNC(=O)Cc2ccccc2)nc(-c2ccccn2)n1 [Compound 233, N-(2-{[6-methyl-2-(pyridin-2-yl)pyrimidin-4-yl]amino}ethyl)-2-phenylacetamide]
5.4	CCc1cc(NCCNC(=O)NC2CCCCC2)nc(-c2ccccn2)n1 [Compound 234, 1-cyclohexyl-3-(2-{[6-ethyl-2-(pyridin-2-yl)pyrimidin-4-yl]amino}ethyl)urea]
5.3	Cc1cc(NCCC(=O)NCc2ccncc2)nc(-c2ccccn2)n1 [Compound 235, 3-{[6-methyl-2-(pyridin-2-yl)pyrimidin-4-yl]amino}-N-[(pyridin-4-yl)methyl]propanamide]
5.4	CCc1cc(NC2CN(c3ccccc3)C2=O)nc(-c2ccccn2)n1 (stereo not drawn) [Compound 236, 3-{[6-ethyl-2-(pyridin-2-yl)pyrimidin-4-yl]amino}-1-phenylazetidin-2-one]
5.4	Cc1cc(NC[C@@H](O)CN2CCCCC2)nc(-c2ccccn2)n1 [Compound 237, (2R)-1-{[6-methyl-2-(pyridin-2-yl)pyrimidin-4-yl]amino}-3-(piperidine-1-yl)propan-2-ol]
